In ChEMBL document CHEMBL4354795, “Amino Acid Scanning at P5' within the Bowman-Birk Inhibitory Loop Reveals Specificity Trends for Diverse Serine Proteases” (J Med Chem, 2019) one finds Ki, IC50 and inhibition data, which are given here for six compounds.

The target in assay [1] is T1, Kallikrein-5 (Homo sapiens, UniProt Q9Y337).
T1 sequence (Q9Y337 whole entry): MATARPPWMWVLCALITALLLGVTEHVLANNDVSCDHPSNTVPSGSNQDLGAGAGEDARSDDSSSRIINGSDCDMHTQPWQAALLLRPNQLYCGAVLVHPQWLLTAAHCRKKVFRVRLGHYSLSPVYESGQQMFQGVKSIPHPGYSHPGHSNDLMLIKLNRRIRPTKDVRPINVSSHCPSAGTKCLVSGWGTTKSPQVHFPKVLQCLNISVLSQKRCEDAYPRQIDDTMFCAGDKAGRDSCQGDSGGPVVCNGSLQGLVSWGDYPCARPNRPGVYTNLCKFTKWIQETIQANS
Nature of the assay: Inhibition of recombinant human KLK5 expressed in expressed in Pichia pastoris X-33 cells using Boc-VPR-MCA as susbtrate measured every 60 secs for 10 mins by fluorescence based assay.

Assay [2] addresses T2, Kallikrein-7 (Homo sapiens, UniProt P49862). Nature of the assay: Inhibition of recombinant human KLK7 expressed in expressed in Pichia pastoris X-33 cells using KHLY-pNA as susbtrate measured every 15 secs for 10 mins by colorimetric analysis.
Target sequence in this assay (P49862 whole entry): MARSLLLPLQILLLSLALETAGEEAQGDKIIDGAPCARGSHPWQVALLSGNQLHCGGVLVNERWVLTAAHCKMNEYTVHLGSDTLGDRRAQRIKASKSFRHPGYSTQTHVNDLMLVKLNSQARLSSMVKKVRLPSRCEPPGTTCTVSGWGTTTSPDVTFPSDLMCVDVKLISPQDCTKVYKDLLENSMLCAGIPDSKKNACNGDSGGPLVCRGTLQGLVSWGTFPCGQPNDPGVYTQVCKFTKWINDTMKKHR
Assay [3] in a line: Inhibition of human cationic trypsin using Boc-VPR-MCA as susbtrate measured every 60 secs for 10 mins by fluorescence based assay.
The target of assay [4] is T3, Suppressor of tumorigenicity 14 protein (Homo sapiens, UniProt Q9Y5Y6).
T3 sequence (Q9Y5Y6 whole entry): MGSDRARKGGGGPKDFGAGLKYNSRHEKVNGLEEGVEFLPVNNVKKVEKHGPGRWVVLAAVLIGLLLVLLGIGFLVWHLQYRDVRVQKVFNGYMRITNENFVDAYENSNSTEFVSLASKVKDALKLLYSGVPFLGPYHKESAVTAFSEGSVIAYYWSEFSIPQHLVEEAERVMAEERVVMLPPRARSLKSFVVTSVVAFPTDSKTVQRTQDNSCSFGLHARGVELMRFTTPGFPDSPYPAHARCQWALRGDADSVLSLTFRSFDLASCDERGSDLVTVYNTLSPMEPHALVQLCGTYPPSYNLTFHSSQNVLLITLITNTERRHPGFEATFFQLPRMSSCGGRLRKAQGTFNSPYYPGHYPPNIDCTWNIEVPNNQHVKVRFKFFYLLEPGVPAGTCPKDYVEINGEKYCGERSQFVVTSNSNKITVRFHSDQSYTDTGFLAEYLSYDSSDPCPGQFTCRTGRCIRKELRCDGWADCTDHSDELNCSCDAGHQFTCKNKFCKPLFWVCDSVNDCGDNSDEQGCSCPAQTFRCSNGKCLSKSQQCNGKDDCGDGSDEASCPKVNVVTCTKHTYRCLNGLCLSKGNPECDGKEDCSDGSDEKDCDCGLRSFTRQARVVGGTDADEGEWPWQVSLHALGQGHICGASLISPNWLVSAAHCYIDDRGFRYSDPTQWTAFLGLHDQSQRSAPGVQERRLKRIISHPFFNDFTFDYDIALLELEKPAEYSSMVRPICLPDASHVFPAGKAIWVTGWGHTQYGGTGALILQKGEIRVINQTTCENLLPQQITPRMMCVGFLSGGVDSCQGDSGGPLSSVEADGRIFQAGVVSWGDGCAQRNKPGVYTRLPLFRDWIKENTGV
Nature of the assay: Inhibition of recombinant human matriptase using Boc-QAR-MCA as susbtrate measured every 60 secs for 10 mins by fluorescence based assay.

Assay [5] has as its target T2, Kallikrein-7. Nature of the assay: Inhibition of recombinant human KLK7 expressed in expressed in Pichia pastoris X-33 cells at 5 uM using KHLY-pNA as susbtrate measured every 15 secs for 10 mins by colorimetric analysis relative to control.
Target sequence in this assay (P49862 30-253 limits assumed): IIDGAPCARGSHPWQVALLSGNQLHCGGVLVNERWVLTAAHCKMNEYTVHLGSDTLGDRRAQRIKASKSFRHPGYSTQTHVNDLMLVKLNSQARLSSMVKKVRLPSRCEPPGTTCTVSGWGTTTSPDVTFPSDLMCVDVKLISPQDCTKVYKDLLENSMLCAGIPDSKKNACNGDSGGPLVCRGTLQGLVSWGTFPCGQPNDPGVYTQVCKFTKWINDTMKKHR
Assay [6] deals with T2, Kallikrein-7. Nature of the assay: Inhibition of recombinant human KLK7 expressed in expressed in Pichia pastoris X-33 cells at 10 uM using KHLY-pNA as susbtrate measured every 15 secs for 10 mins by colorimetric analysis relative to control.
Target sequence in this assay (P49862 30-253 limits assumed): as above
Assay [7] is filed under the species Homo sapiens. Nature of the assay: Inhibition of human cationic trypsin at 10 uM using Boc-VPR-MCA as susbtrate measured every 60 secs for 10 mins by fluorescence based assay relative to control.
The target in assay [8] is T4, Suppressor of tumorigenicity 14 protein (Homo sapiens) (UniProt Q9Y5Y6).
T4 sequence (whole entry): T3 sequence (Q9Y5Y6 whole entry)
Nature of the assay: Inhibition of recombinant human matriptase at 10 uM using Boc-QAR-MCA as susbtrate measured every 60 secs for 10 mins by fluorescence based assay relative to control.

The target of assay [9] is T2, Kallikrein-7. Nature of the assay: Inhibition of recombinant KLK7 (unknown origin) expressed in Pichia pastoris X-33 cells using p-NA peptide as substrate measured every 10 secs for 300 secs by spectrophotometric analysis.
Target sequence in this assay (P49862 whole entry): as the sequence (P49862 whole entry) above
In assay [10] the target is T1, Kallikrein-5. Nature of the assay: Inhibition of recombinant KLK5 (unknown origin) expressed in Pichia pastoris X-33 cells using pNA peptide as susbtrate measured every 10 secs for 300 secs by spectrometric analysis.
Assay [11] addresses T3, Suppressor of tumorigenicity 14 protein. Nature of the assay: Inhibition of recombinant human matriptase catalytic domain using Boc-QARAMC as substrate preincubated for 1 hr followed by substrate addition.

Each structure is given as a SMILES string. Bridge positions count the residues as written; N and C are the ends. Peptide text beside a SMILES is read from it. Bounds are passed on as bounds.

The term Ki denotes the equilibrium dissociation constant of an inhibitor or competing ligand from its target. Broadly, the IC50 is the concentration at which inhibition is half-maximal. Broadly, the inhibition is the share of the control response that was lost under treatment. With `N=C(N)NCCC[C@@H]1NC(=O)[C@H](Cc2cnc[nH]2)NC(=O)[C@@H]2CSSC[C@H](NC(=O)[C@H](CCC(=O)O)NC(=O)[C@@H]3CCCN3C(=O)[C@@H]3CCCN3C(=O)[C@H](Cc3ccc(O)cc3)NC(=O)[C@H](CO)NC1=O)C(=O)N[C@@H](Cc1c[nH]c3ccccc13)C(=O)N1CCC[C@H]1C(=O)N[C@@H](CC(N)=O)C(=O)NCC(=O)N[C@@H](Cc1ccccc1)C(=O)N2`, the Ki in assay [1] was 2.4 nM. In addition, the IC50 in [2] was over 5 µM; in assay [3] it was over 10 µM; in assay [4] it was over 10 µM. Also, in assay [5], the inhibition was under 50%.
Consider `N=C(N)NCCC[C@@H]1NC(=O)[C@H](Cc2cnc[nH]2)NC(=O)[C@@H]2CSSC[C@H](NC(=O)[C@H](CC(=O)O)NC(=O)[C@@H]3CCCN3C(=O)[C@@H]3CCCN3C(=O)[C@H](Cc3ccc(O)cc3)NC(=O)[C@H](CO)NC1=O)C(=O)N[C@@H](Cc1ccccc1)C(=O)N1CCC[C@H]1C(=O)N[C@@H](CC(N)=O)C(=O)NCC(=O)N[C@@H](Cc1ccccc1)C(=O)N2` (cyclo(CFPNGFCHRSYPPD); disulfide 1-7), for which, in assay [1], the Ki was 8.9 nM.
Turning to `N=C(N)NCCC[C@@H]1NC(=O)[C@H](Cc2cnc[nH]2)NC(=O)[C@@H]2CSSC[C@H](NC(=O)[C@H](CCC(=O)O)NC(=O)[C@@H]3CCCN3C(=O)[C@@H]3CCCN3C(=O)[C@H](Cc3ccc(O)cc3)NC(=O)[C@H](CO)NC1=O)C(=O)N[C@@H](Cc1ccccc1)C(=O)N1CCC[C@H]1C(=O)N[C@@H](CC(N)=O)C(=O)NCC(=O)N[C@@H](Cc1ccccc1)C(=O)N2` (cyclo(CFPNGFCHRSYPPE); disulfide 1-7), the Ki in [1] worked out at 3.7 nM. Further, the half-inhibitory concentration (IC50) in assay [2], in [3] and in assay [4] was over 10 µM each time. In addition, the inhibition in assay [6], in assay [7] and in assay [8] was under 50% throughout.
For `CC[C@H](C)[C@@H]1NC(=O)[C@@H]2CCCN2C(=O)[C@@H]2CCCN2C(=O)[C@H]([C@@H](C)CC)NC(=O)[C@H](CO)NC(=O)[C@H](CCCCN)NC(=O)[C@H]([C@@H](C)O)NC(=O)[C@@H]2CSSC[C@H](NC1=O)C(=O)N[C@@H](Cc1ccccc1)C(=O)N1CCC[C@H]1C(=O)N[C@@H](CC(N)=O)C(=O)NCC(=O)N[C@@H](CCCNC(=N)N)C(=O)N2` (cyclo(CFPNGRCTKSIPPI); disulfide 1-7), the IC50 in assay [9] was over 10 µM. Moreover, the results for the Ki in assay [10] and in assay [11] were 143 nM and 200 nM, respectively.
For `N=C(N)NCCC[C@@H]1NC(=O)[C@H](CC(N)=O)NC(=O)[C@@H]2CSSC[C@H](NC(=O)[C@H](CC(=O)O)NC(=O)[C@@H]3CCCN3C(=O)[C@@H]3CCCN3C(=O)[C@H](Cc3ccc(O)cc3)NC(=O)[C@H](CO)NC1=O)C(=O)N[C@@H](Cc1ccccc1)C(=O)N1CCC[C@H]1C(=O)N[C@@H](CC(N)=O)C(=O)NCC(=O)N[C@@H](Cc1ccc(O)cc1)C(=O)N2` (cyclo(CFPNGYCNRSYPPD); disulfide 1-7), the Ki in [1] was 0.73 nM.
Consider `N=C(N)NCCC[C@@H]1NC(=O)[C@H](CC(N)=O)NC(=O)[C@@H]2CSSC[C@H](NC(=O)[C@H](CCC(=O)O)NC(=O)[C@@H]3CCCN3C(=O)[C@@H]3CCCN3C(=O)[C@H](Cc3ccc(O)cc3)NC(=O)[C@H](CO)NC1=O)C(=O)N[C@@H](Cc1ccccc1)C(=O)N1CCC[C@H]1C(=O)N[C@@H](CC(N)=O)C(=O)NCC(=O)N[C@@H](Cc1ccc(O)cc1)C(=O)N2` (cyclo(CFPNGYCNRSYPPE); disulfide 1-7), for which, in assay [1], the Ki was determined as 0.34 nM. Further, the IC50 is over 10 µM in [2], over 2 µM in [3] and over 10 µM in assay [4].
